Assay results reported in publication PMC5813016 (Nature Communications, 2018).
Where “and” joins values, the source holds several entries; their conditions need not be identical. Equal values may be shown once. Entries after “also recorded” stand apart in the source; their conditions may differ.

Key:
Histamine 1 = molecular target: T1, Histamine 1 (Homo sapiens, UniProt P35367); test: FLIPR calcium assay, histamine 1; assay type: cell-based; details: for EC50: read-out: Histamine 1, Agonist EC50; for IC50: vs EC80 of agonist, read-out: Histamine 1, Antagonist IC50
T1 construct: expressed in transfected cells
Procedure: Activation of the receptor by an agonist in this assay system results in an increase in intracellular calcium levels which is measured using a calcium specific dye. Cells were plated at 7500 cells per well (50 µl per well) in black walled clear bottomed 384-well plates 24 h prior to running the assay. […] Compound solution (10 µl) was added to each well by the FLIPR Tetra® instrument to measure agonist activity of the compound by measuring the change in fluorescence from baseline over a 60 s period (Ex […]). Subsequently 10 µl of agonist (EC80 value) was added to each well by the FLIPR Tetra® instrument to evaluate antagonist activity, with the change in fluorescence from baseline being measured over a 60 s period.
(§1) In vitro data analysis: Agonist/antagonist curves were plotted from individual experiments, and EC50/IC50 values were determined using a four parameter logistic fit.

Adrenergic Beta 2 = molecular target: T2, Adrenergic Beta 2 (Homo sapiens, UniProt P07550); test: Beta arrestin enzyme fragment complementation assay, adrenergic beta 2; assay type: cell-based; details: for EC50: read-out: Adrenergic Beta 2, Agonist EC50; for IC50: vs EC80 of agonist, read-out: Adrenergic Beta 2, Antagonist IC50
T2 construct: expressed in transfected cells
Procedure: Recruitment of β-arrestin to the GPCR, results in a functional enzyme that generates a chemiluminescent signal when substrate is added. Cells were plated at 5000 cells per well (40 µl per well) in black walled clear bottomed 384-well plates 24 h prior to running the assay. Medium was removed from the plates. For agonist studies 15 µl of HBSS/HEPES containing compound was added to the cells and the plate was incubated at room temperature for 90 min. For antagonist studies 15 µl of HBSS/HEPES containing compound was added to the cells and was incubated for 15 min prior to the addition of 15 µl of an EC80 concentration of agonist. The plate was subsequently incubated at room temperature for 90 min. Both assays were terminated by addition of 15 µl of a Beta-Glo® solution (Promega). Following an additional 30 min incubation the luminescence of each well was measured to determine the level of receptor activation.
as §1

[1] = molecular target: T3, Norepinephrine Transporter (Homo sapiens, UniProt P23975); test: Amine transporter dye uptake assay, NET; assay type: cell-based; details: read-out: Norepinephrine Transporter, Inhibitor IC50
T3 construct: expressed in transfected cells
Procedure: HBSS/HEPES containing compound (5 µl) was added to the wells of black walled clear bottomed 384-well plate. Transporter dye (25 µl) (Molecular Devices; Cat # R8174) was added to each well. Finally 15,000 cells (20 µl) stably expressing the amine transporter of interest were added to each well and the plate is incubated at 37 °C for 30 min (DAT) or 60 min (NET and SERT). The plate is transferred to the FLIPR Tetra® instrument and the fluorescence of each well was measured (Ex […]). The level of fluorescence measured directly relates to the level of uptake of the dye labelled amine, with a reduction in levels being related to an inhibition of the respective transporter.
as §1

[2] = system: human D1R / β-arrestin2-GFP in U2OS cells; test: β-arrestin2-GFP membrane recruitment, TIRFM, U2OS cells; assay type: cell-based; details: U2OS cells expressing human D1R, 1 μM agonist, 10 min
Procedure: This stable U2OS cell line was generated, obtained and licensed from Professor Marc G. Caron, Duke University, Durham, NC, USA. […] The U2OS cells were cultured under antibiotic selection in DMEM (Invitrogen) containing 25 mM glucose and 4 mM L-glutamine supplemented with 10% dialyzed fetal bovine serum, […] Geneticin, […] Zeocin, and 100 U/ml penicillin/streptomycin (all from Invitrogen) and incubated at 37 °C in 5% CO2. Cells from passage four through ten were used in these experiments. Cells were grown in 35 mm glass bottomed imaging dishes (Mattek Corp). Cells were incubated for 1 h in serum free media (SFM) and subsequently treated for 10 min at 37 °C with 0.01% DMSO (control) or 1 μM of all test compounds dissolved in SFM followed by immediate fixation on ice with a 4% paraformaldehyde/1× phosphate buffered saline solution.
TIRFM was used to visualize proteins at the plasma membrane of cells such as D1 receptors and recruited β-arrestin-GFP[65]. All images were captured using a Zeiss PS.1 Elyra Superresolution fluorescence microscope equipped with TIRF module.
Custom image analysis scripts were developed to automatically identify and quantify β-arrestin membrane recruitment. We employed standard methods of image processing based on grayscale morphology. First 16bit images were transformed to 8bit range via square root transformation to improve identification of punctate structure of varying intensity. Images were smoothed with small Gaussian kernel to eliminate noise (h = 2px, σ = 1). At the next step images were transformed via tophat operation with large kernel (radius 30px) to eliminate non-uniformity of the background. Second tophat transform with small kernel (radius 5px) was used to enhance signal and eliminate local intensity variation around puncta. This image was then processed to find locations of puncta intensity peaks via non-maximal suppression filter with 3px radius of region considered in non-maximal suppression, and threshold 20. Finally the boundaries of puncta were identified using marker controlled watershed operation with peaks serving as foreground markers. After having identified each puncta, we used 8bit transformed but otherwise non-processed images to quantify intensity and area of each region. We focused on two endpoints, number of puncta per cell and integrated intensity of puncta per cell (sum of the products of average intensity and area of each puncta within a cell), both adjusted for cell area as described below. The boundaries of the cells were identified via Otsu's method, followed by hole filling and identification of the largest closely connected component. The area of the foreground was used as normalization factor to account for occasional differences in cell areas in the field of view. Specifically all foreground areas across experiment were pooled and divided by the median of the areas to obtain normalization factor for each image. This factor was then used for adjustment for number of puncta and integrated intensity of puncta, which scale with the number of cells. Puncta outside of cell boundaries were filtered out.
The results were aggregated over batches of cells recorded at the same time, with three or more batches per condition, approximately 20 cells per well. The statistical significance was tested via one-way ANOVA with treatment as a factor. To address the problem of severe inequality of variances across the treatment groups assessed via Bartlett′s test, we used square root transformation. All statistical results for the number of puncta per cell and integrated intensity of puncta per cell are presented for transformed variables. Significant ANOVA findings were followed with post-hoc comparisons with Dunnett′s procedure in case of comparisons with the control group or with false discover rate adjustment[69] otherwise. All statistical tests were performed two-tailed at a 5% level of significance.

human D1R F289A mutant = test: cAMP assay, D1R mutant F289A; details: relative to wild-type D1R; each table line is one experiment (Experiment # 1-6)
rat D1R (rD1R) = rat D1R (rD1R) (Rattus norvegicus, UniProt P18901); test: Rat D1R radioligand binding ([3H]-SCH23390, HEK293)
Chain of rat D1R (rD1R) (P18901 whole entry): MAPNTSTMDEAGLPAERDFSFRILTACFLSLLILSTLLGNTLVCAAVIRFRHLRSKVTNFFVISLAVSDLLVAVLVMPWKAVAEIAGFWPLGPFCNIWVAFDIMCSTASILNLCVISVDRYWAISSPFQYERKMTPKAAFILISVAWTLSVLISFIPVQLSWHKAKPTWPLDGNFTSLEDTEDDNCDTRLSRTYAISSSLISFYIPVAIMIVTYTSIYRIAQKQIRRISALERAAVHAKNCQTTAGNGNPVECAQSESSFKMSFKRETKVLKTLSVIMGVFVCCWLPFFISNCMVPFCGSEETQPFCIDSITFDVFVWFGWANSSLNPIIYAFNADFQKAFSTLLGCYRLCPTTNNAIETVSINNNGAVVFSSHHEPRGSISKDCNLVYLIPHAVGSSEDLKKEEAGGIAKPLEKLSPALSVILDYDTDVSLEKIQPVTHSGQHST

T2 sequence (P07550 whole entry, the tested form may be a part): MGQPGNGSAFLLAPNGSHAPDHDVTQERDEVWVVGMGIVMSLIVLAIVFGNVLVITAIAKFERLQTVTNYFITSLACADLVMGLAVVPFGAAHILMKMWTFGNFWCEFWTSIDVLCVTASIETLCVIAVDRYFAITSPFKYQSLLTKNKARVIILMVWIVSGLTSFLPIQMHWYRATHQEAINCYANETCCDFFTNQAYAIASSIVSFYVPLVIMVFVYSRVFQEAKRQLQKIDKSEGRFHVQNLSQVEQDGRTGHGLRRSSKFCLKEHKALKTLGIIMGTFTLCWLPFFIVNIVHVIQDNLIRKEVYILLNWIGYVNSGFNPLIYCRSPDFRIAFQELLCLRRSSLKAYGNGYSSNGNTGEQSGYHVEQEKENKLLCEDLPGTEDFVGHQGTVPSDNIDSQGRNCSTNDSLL
T3 sequence (P23975 whole entry, species assumed): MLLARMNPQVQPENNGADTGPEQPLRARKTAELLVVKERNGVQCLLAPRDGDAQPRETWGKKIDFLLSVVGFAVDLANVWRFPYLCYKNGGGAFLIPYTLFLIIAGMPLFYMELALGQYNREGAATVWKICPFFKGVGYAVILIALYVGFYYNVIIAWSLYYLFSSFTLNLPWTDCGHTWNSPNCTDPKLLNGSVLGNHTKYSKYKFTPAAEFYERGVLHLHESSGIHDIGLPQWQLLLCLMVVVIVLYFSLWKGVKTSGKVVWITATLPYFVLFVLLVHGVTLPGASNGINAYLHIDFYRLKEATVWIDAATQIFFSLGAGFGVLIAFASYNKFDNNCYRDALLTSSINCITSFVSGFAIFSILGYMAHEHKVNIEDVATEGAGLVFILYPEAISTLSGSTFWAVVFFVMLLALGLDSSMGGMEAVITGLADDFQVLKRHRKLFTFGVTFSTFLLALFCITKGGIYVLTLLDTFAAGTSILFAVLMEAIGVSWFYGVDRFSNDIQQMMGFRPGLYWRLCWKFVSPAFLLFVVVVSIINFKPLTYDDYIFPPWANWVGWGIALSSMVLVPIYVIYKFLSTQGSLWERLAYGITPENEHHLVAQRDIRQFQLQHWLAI
T1 sequence (P35367 whole entry): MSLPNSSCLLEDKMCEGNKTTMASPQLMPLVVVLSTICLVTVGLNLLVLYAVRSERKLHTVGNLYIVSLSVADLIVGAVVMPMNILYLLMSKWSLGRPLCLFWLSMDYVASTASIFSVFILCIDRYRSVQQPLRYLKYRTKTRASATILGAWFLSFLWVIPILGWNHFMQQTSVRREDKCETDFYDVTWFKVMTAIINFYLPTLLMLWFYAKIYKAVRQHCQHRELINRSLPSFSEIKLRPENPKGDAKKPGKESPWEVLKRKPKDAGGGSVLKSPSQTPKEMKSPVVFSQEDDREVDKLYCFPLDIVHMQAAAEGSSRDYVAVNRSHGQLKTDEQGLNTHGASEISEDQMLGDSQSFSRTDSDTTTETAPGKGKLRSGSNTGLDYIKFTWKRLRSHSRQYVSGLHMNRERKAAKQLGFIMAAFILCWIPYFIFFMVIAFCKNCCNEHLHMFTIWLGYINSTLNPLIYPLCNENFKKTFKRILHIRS

| fold shift of cAMP functional potency, F289A (EC50 mutant/ EC50 WT) (human D1R F289A mutant) | SMILES | EC50 (Histamine 1) | IC50 (Histamine 1) | EC50 (Adrenergic Beta 2) | IC50 (Adrenergic Beta 2) | IC50 [1] | β-arrestin-GFP recruitment to the plasma membrane (TIRFM) [2] | Ki (rat D1R (rD1R)) |
| --- | --- | --- | --- | --- | --- | --- | --- | --- |
| 27.9 | Cc1cc(Oc2nccc3occc23)ccc1-c1c(C)ncnc1C [PF-8871] | > 10 µM | > 10 µM | > 10 µM | > 10 µM | > 10 µM | significantly lower signal than in dopamine groups; also recorded: minimal recruitment of β-arrestin | 0.021 ± 0.003 µM |
| – | Cc1cc(Oc2nccc3occc23)ccc1-c1c(C)cnnc1C [PF-1119] | > 10 µM | > 10 µM | > 10 µM | > 10 µM | > 10 µM | significantly lower total signal | – |
| 12.4 and 16.0 | Cc1cc(Oc2cccc(O)c2O)ccc1-c1c(C)ncnc1C [PF-1437] | – | – | – | – | – | significantly higher signal; also recorded: β-arrestin recruitment profile similar to that of dopamine | – |
| – | Cc1cc(Oc2nccc3occc23)ccc1-n1c(C)nc2cnccc21 [PF-8294] | > 10 µM | > 10 µM | > 10 µM | > 10 µM | > 10 µM | significantly lower total signal | 0.164 ± 0.164 µM |

| SMILES | fold shift of cAMP functional potency, F289A (EC50 mutant/ EC50 WT) (human D1R F289A mutant) | EC50 (Histamine 1) | IC50 (Histamine 1) | EC50 (Adrenergic Beta 2) | IC50 (Adrenergic Beta 2) | IC50 [1] | β-arrestin-GFP recruitment to the plasma membrane (TIRFM) [2] | Ki (rat D1R (rD1R)) |
| --- | --- | --- | --- | --- | --- | --- | --- | --- |
| Cc1cc(Oc2nccc3occc23)ccc1-c1c(C)ncc2nccn12 [PF-6142] | 32.3 and 44.7 | > 10 µM | 4.56 µM | > 10 µM | > 10 µM | > 10 µM | significantly lower total signal; also recorded: significantly less recruitment of β-arrestin | 0.018 ± 0.004 µM |
